Assays:
human abdominal skin = test: In vitro human skin permeation and skin disposition, flow-through diffusion cells (Examples 2, 2A, 2B); assay type: in vitro ADME; conditions: for Flux enhancement: total cannabidiol versus cannabidiol
How it was run: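 Dermatomed (~200 μm) frozen human abdominal skin was mounted in flow-through cells at 32° C (0.95 cm^2), stratum corneum to donor. Donors were 0.10 mL 45:4:1 PG:H2O:IPM solution or 50 μL gel; receiver was 40% PEG 400 (HEPES-Hanks pH 7.4 or aqueous) with gentamicin at 0.8 mL/h. Samples were taken every 3 h for 24-42 h; skin accumulation was expressed as μmol/g wet tissue.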

[1] = Plasma stability of cannabidiol prodrugs (bioconversion to parent drug); assay type: in vitro ADME; conditions: Table 20, di-prodrug in plasma; for % mono-prodrug at time (h): mono-prodrug formed
Experimental: An approximated 1 mg/mL stock solution of each prodrug was prepared in 100 μL of ethanol and 900 μL of acetonitrile. Ten (10) μL of stock was spiked into 1 mL of plasma and vortexed. The samples were kept sealed in an amber vial and samples were obtained to analyze for bioconversion to parent drug.

[2] = Table 19, gel formulation, 40% aqueous PEG 400 receiver fluid, as applied compound (CBD or intact prodrug)
[3] = Table 19, gel formulation, 40% aqueous PEG 400 receiver fluid, mono-prodrug (ALL00150) from applied di-prodrug
[4] = Table 19, gel formulation, 40% aqueous PEG 400 receiver fluid, prodrug applied, as total cannabidiol equivalents
[5] = Table 16, 90:8:2 PG:H2O:IPM donor solution, 60/40 Hanks'/PEG 400 receiver fluid, as applied compound (CBD or intact prodrug)
[6] = Table 17, 90:8:2 PG:H2O:IPM donor solution, 40% aqueous PEG 400 receiver fluid, as applied compound (CBD or intact prodrug)
[7] = Table 18, 90:8:2 PG:H2O:IPM donor solution, 40% aqueous PEG 400 receiver fluid, as applied compound (CBD or intact prodrug)
[8] = Table 21, gel formulation, 40% aqueous PEG 400 receiver fluid, as applied compound (CBD or intact prodrug)
[9] = Table 23, gel formulation, 40% aqueous PEG 400 receiver fluid, as applied compound (CBD or intact prodrug)
[10] = Table 18, 90:8:2 PG:H2O:IPM donor solution, 40% aqueous PEG 400 receiver fluid, CBD from applied prodrug
[11] = Table 18, 90:8:2 PG:H2O:IPM donor solution, 40% aqueous PEG 400 receiver fluid, mono-prodrug from applied di-prodrug
[12] = Table 18, 90:8:2 PG:H2O:IPM donor solution, 40% aqueous PEG 400 receiver fluid, prodrug applied, as total cannabidiol equivalents

## C=C(C)[C@@H]1CCC(C)=C[C@H]1c1c(OC(=O)CCN(C)C)cc(CCCCC)cc1OC(=O)CCN(C)C [ALL00101, CBD bis(3-(dimethylamino)propionate)]
Human abdominal skin; Table 19, gel formulation, 40% aqueous PEG 400 receiver fluid, CBD from applied prodrug
  24 h skin conc: 13.2 ± 10.4 µmol/g
Human abdominal skin; [2]
  24 h skin conc: 0.8 ± 0.6 µmol/g
Human abdominal skin; [3]
  24 h cumulative amt: 8.4 ± 1.3 nmol
  24 h skin conc: 34.7 ± 27.7 µmol/g
  Flux: 0.4 ± 0.03 nmol/cm^2/h
  Lag time: 2.9 ± 1.9 h
Human abdominal skin; [4]
  24 h cumulative amt: 8.4 ± 1.3 nmol
  24 h skin conc: 48.7 ± 38.6 µmol/g
  Flux: 0.4 ± 0.03 nmol/cm^2/h
  Lag time: 2.9 ± 1.9 h
Human abdominal skin; Table 19, gel formulation, 40% aqueous PEG 400 receiver fluid
  Flux enhancement: 0.52
Human abdominal skin; in gel formulation
  detected in the skin as: trace small amounts of intact prodrug but mostly as mono-substituted prodrug, ALL00150, and cannabidiol
  flux compared to cannabidiol: did not increase the flux
  lag time compared to cannabidiol: decreased
  permeated through the skin as: mono-substituted prodrug (ALL00150) only
  total skin concentrations compared to cannabidiol: higher
[1]; 1 h
  % mono-prodrug at time (h): 22%
  % Di-prodrug at time (h): 75%
[1]; 20 h
  % mono-prodrug at time (h): 11%
  % Di-prodrug at time (h): 1%
[1]; 0 h
  % Di-prodrug at time (h): 100%

## C=C(C)[C@@H]1CCC(C)=C[C@H]1c1c(O)cc(CCCCC)cc1O [cannabidiol, reference compound]
Human abdominal skin; [5]
  42 h cumulative amt: 154.4 ± 39.5 nmol
  42 h skin conc: 19.0 ± 12.8 µmol/g
  Flux: 6.5 ± 0.7 nmol/cm^2/h
Human abdominal skin; [6]
  30 h cumulative amt: 51.6 ± 9.1 nmol
  30 h skin conc: 10.5 ± 6.5 µmol/g
  Flux: 3.9 ± 0.2 nmol/cm^2/h
Human abdominal skin; [7]
  30 h cumulative amt: 148.6 ± 54.0 nmol
  30 h skin conc: 21.2 ± 4.8 µmol/g
  Flux: 8.2 ± 2.6 nmol/cm^2/h
Human abdominal skin; [2]
  24 h cumulative amt: 12.3 ± 8.1 nmol
  24 h skin conc: 9.0 ± 2.2 µmol/g
  Flux: 0.8 ± 0.4 nmol/cm^2/h
  Lag time: 8.5 ± 2.1 h
Human abdominal skin; [8]
  24 h cumulative amt: 6.5 ± 3.8 nmol
  24 h skin conc: 15.6 ± 4.2 µmol/g
  Flux: 0.4 ± 0.2 nmol/cm^2/h
  Lag time: 5.3 ± 1.7 h
Human abdominal skin; Table 22, anhydrous gel formulation, 40% aqueous PEG 400 receiver fluid, as applied compound (CBD or intact prodrug)
  24 h skin conc: 3.3 ± 1.3 µmol/g
Human abdominal skin; [9]
  24 h cumulative amt: 3.0 nmol
  24 h skin conc: 27.7 ± 24.6 µmol/g
  Flux: 0.29 nmol/cm^2/h
  Lag time: 12.8 h
Human abdominal skin; anhydrous gel versus ethanol based gel
  concentrations in the skin, anhydrous gel formulation compared to the ethanol based gel formulation: much lower

## C=C(C)C1CCC(C)=CC1c1c(OC(=O)CN(C)C)cc(CCCCC)cc1OC(=O)CN(C)C (centres unmarked) [ALL00105, CBD bis(N,N-dimethylglycinate)]
Human abdominal skin; [10]
  30 h cumulative amt: 6.9 ± 0.0 nmol
  30 h skin conc: 30.0 ± 0.0 µmol/g
  Flux: 0.6 ± 0.0 nmol/cm^2/h
  Lag time: 18.6 ± 0.0 h
Human abdominal skin; [11]
  30 h cumulative amt: 15.4 ± 0.0 nmol
  30 h skin conc: 40.2 ± 0.0 µmol/g
  Flux: 1.0 ± 0.0 nmol/cm^2/h
  Lag time: 13.0 ± 0.0 h
Human abdominal skin; [12]
  30 h cumulative amt: 22.3 ± 0.0 nmol
  30 h skin conc: 70.2 ± 0.0 µmol/g
  Flux: 1.6 ± 0.0 nmol/cm^2/h
  Lag time: 15.2 ± 0.0 h
Human abdominal skin; Table 18, 90:8:2 PG:H2O:IPM donor solution, 40% aqueous PEG 400 receiver fluid
  Flux enhancement: 0.19
Human abdominal skin; in donor solution
  detected in the skin as: mono-substituted prodrug, ALL00148, and cannabidiol
  flux compared to cannabidiol: did not increase the flux
  lag time compared to cannabidiol: not decreased
  permeated through the skin as: mono-substituted prodrug (ALL00148) and cannabidiol
  total skin concentrations compared to cannabidiol: higher
[1]; 2 h
  % mono-prodrug at time (h): 0%
  % Di-prodrug at time (h): 92%
[1]; 4 h
  % mono-prodrug at time (h): 0%
  % Di-prodrug at time (h): 88%
[1]; 22 h
  % mono-prodrug at time (h): 0%
  % Di-prodrug at time (h): 58%
[1]; 24 h
  % mono-prodrug at time (h): 0%
  % Di-prodrug at time (h): 55%
[1]; 0 h
  % Di-prodrug at time (h): 100%

Source: US8293786B2 (Alltranz Inc., priority 2007, dated 2012)
